According to patent US20240240208A1, “COMPOSITIONS AND METHODS FOR INCREASING EFFICIENCY OF PRECISE EDITING REPAIR” (New York Genome Center, Inc., priority 2021, published 2024):

Test system: human K562 PRKDC−/− cells
Test: Precise repair (% BFP conversion) after SpCas9 RNP, EGFP-targeting sgRNA and EBFP ssODN nucleofection
Format: cell-based
Details: 1 μM, DMSO control 56%
Procedure: To investigate the effect of combinatorial inhibition using a DNA-PK inhibitor and another inhibitor on HDR gene editing rates, human K562 PRKDC−/− cells (a DNA Knock Out cell line) were nucleofected with SpCas9 RNPs with an EGFP-targeting sgRNA and EBFP ssODN and then incubated with 1 μM (micro molar) concentration ST1926 (an inhibitor of POLA1) or DMSO treated (control). Gene editing rates are expressed in percentages and classified as % precise repair (% BFP conversion). The combination of ST1926 treatment in PRKDC-null human cells boosted precise editing from 56% to 73%.

Q: For `O=C(O)/C=C/c1ccc(-c2ccc(O)c(C34CC5CC(CC(C5)C3)C4)c2)cc1` [ST1926], which “% precise repair (% BFP conversion)” value is on record?
A: 73%

Test system: HEK293 DNA-PK KO cells
Test: HDR levels by GFP-to-BFP conversion assay in DNA-PK KO cells clone 22 treated with small molecule inhibitors
Format: cell-based, human
Details: 1 μM inhibitor added with Cas9, guide RNA and ssDNA encoding BFP; DNA-PK KO cells clone 22; drugs washed off 24 hours later
Procedure: Eighteen targets were targeted with 38 drugs. […] Small molecule inhibitors were added in the media simultaneously with the introduction of Cas9, guide RNA and single-stranded DNA (ssDNA) encoding BFP. HDR levels were measured with the BFP-to-GFP assay. […] Precise repair levels are shown as a % of BFP+ cells over DMSO.
DNA-PK KO cells were tested with the noted compounds at compounds at 10 μM, 5 μM, 1 μM, 0.5 μM, 0.1 μM, and 0.01 μM, as for FIGS. 4 and 6. HDR levels are shown as a % of BFP+ cells over DMSO 24 hours after drug treatment.
(§1) To study the efficiency of HDR in human cells we used the green fluorescent protein (GFP) to blue fluorescent protein (BFP) pair, where conversion from GFP to BFP requires editing of 2 nucleotides. The CRISPR screens were performed on a K562 human cell line stably expressing a green fluorescent protein (GFP). GFP was targeted with Cas9, guide RNA targeting GFP, and a single stranded DNA (ssDNA) encoding BFP. Efficiency of HDR in cells carrying specific genetic perturbations (genetic inhibition or activation) were identified using fluorescence-activated cell sorting (FACS), followed by guide RNA recovery and quantification using next-generation sequencing (NGS).
The small molecules were tested on DNA-PK knockout HET293 cells at concentrations of 10 μM or 1 μM. Eighteen targets were targeted with 38 drugs. […] Drug validations were performed in DNA-PK KO cells clone 22 treated with dimethyl sulfoxide (DMSO) or 1 or 10 μM of the indicated inhibitors. HDR levels were measured with the BFP-to-GFP assay. Small molecule inhibitors were added in the media simultaneously with the introduction of Cas9, guide RNA and single-stranded DNA (ssDNA) encoding BFP. The drugs were washed off 24 hours later.
The compounds shown in FIG. 6 were further tested for dose dependent effects. The same cells as described above were treated with the noted compounds at compounds at 10 μM, 5 μM, 1 μM, 0.5 μM, 0.1 μM, and 0.01 μM. HDR levels are shown as a % of BFP+ cells over DMSO 24 hours after drug treatment (FIG. 7).

Q: With `COc1cc(Nc2ncc3c(n2)-c2ccc(Cl)cc2C(c2c(F)cccc2OC)=NC3)ccc1C(=O)O` [Alisertib] as the compound, how does the “HDR levels (% of BFP+ cells over DMSO)” value read?
A: increased HDR levels

Q: How did the “HDR levels (% of BFP+ cells over DMSO)” value turn out when `COc1cc(-c2cn(C)c(=O)c3cnccc23)cc(OC)c1CN(C)C` [BI-7273] was run?
A: increased HDR levels

Q: How did the “HDR levels (% of BFP+ cells over DMSO)” value turn out when `Cc1cc2c(C(N)=O)cccc2n1-c1nc2c(c(NCc3ccccc3)n1)COCC2` [CB-5083] was run?
A: increased HDR levels

Q: How did the “HDR levels (% of BFP+ cells over DMSO)” value turn out when `O=C(O)c1ccc2cc(-c3ccc(O)c(C45CC6CC(CC(C6)C4)C5)c3)ccc2c1` [CD437] was run?
A: increased HDR levels

Q: For `c1ccc(CNc2nc(NCc3ccccc3)c3ccccc3n2)cc1` [DBeQ], which “HDR levels (% of BFP+ cells over DMSO)” value is on record?
A: increased HDR levels

Q: Which “HDR levels (% of BFP+ cells over DMSO)” value does the source give for `NC(=O)/C(=C/n1cnc(-c2cc(C(F)(F)F)cc(C(F)(F)F)c2)n1)c1cncnc1` [Eltanexor (KPT-8602), Eltanexor] here?
A: increased HDR levels

Q: Which “HDR levels (% of BFP+ cells over DMSO)” value does the source give for `COC(=O)[C@H](CCSC)NC(=O)c1ccc(NC[C@@H](N)CS)cc1-c1ccccc1.Cl` [FTI 277 HCl] here?
A: increased HDR levels

Q: Which “HDR levels (% of BFP+ cells over DMSO)” value does the source give for `CC(=O)Nc1nc(-c2cccc(NS(=O)(=O)c3cccc4c(N(C)C)cccc34)c2)cs1` [HA15] here?
A: increased HDR levels

Q: Which “HDR levels (% of BFP+ cells over DMSO)” value does the source give for `CCn1cc(-c2cccc(C(F)(F)F)c2)c2sc(C(=N)NC3CCS(=O)(=O)CC3)cc2c1=O` [I-BRD9] here?
A: increased HDR levels

Q: For `O=C(/C=C\n1cnc(-c2cc(C(F)(F)F)cc(C(F)(F)F)c2)n1)N1CC(F)(F)C1` [KPT-276], which “HDR levels (% of BFP+ cells over DMSO)” value is on record?
A: increased HDR levels

Q: `Cc1ncc(CCCN(C)C)cc1Nc1ncc2c(n1)-c1ccc(C(F)(F)F)cc1NC(=S)C2` [MLN0905] was tested. Which “HDR levels (% of BFP+ cells over DMSO)” value did it give?
A: increased HDR levels

Q: Which “HDR levels (% of BFP+ cells over DMSO)” value does the source give for `Cc1cc(OCc2nnc(SC3CCCC3)n2-c2cccnc2)ccc1-c1ccc(S(C)(=O)=O)cc1` [NMS-873] here?
A: increased HDR levels

Q: For `CO[C@@H]1[C@@H](OC(N)=O)[C@@H](O)[C@H](Oc2ccc3c(O)c(NC(=O)c4ccc(O)c(CC=C(C)C)c4)c(=O)oc3c2C)OC1(C)C` [Novobiocin], which “HDR levels (% of BFP+ cells over DMSO)” value is on record?
A: increased HDR levels

Q: `Nc1ncnc2c1c(COc1cccc(Cl)c1)nn2C1CCOCC1` [PF 4800567] was tested. Which “HDR levels (% of BFP+ cells over DMSO)” value did it give?
A: increased HDR levels

Q: `Nc1nccc(-c2c(-c3ccc(F)cc3)ncn2C2CCCCC2)n1` [PF-670462] was tested. Which “HDR levels (% of BFP+ cells over DMSO)” value did it give?
A: increased HDR levels

Q: For `Cc1nc(Nc2n[nH]c3c2CN(C(=O)N[C@H](CN(C)C)c2ccccc2)C3(C)C)c2sccc2n1` [PF-3758309], which “HDR levels (% of BFP+ cells over DMSO)” value is on record?
A: increased HDR levels

Q: `O=C(O)/C=C/c1ccc(-c2ccc(O)c(C34CC5CC(CC(C5)C3)C4)c2)cc1` [ST1926] was tested. Which “HDR levels (% of BFP+ cells over DMSO)” value did it give?
A: increased HDR levels

Q: With `O=C(O)Cn1c2c(c3cc(F)ccc31)CN(C(=O)c1cccc3ccccc13)CC2` [Setipiprant] as the compound, how does the “HDR levels (% of BFP+ cells over DMSO)” value read?
A: increased HDR levels

Q: How did the “HDR levels (% of BFP+ cells over DMSO)” value turn out when `N#Cc1ccc(COC[C@H]2O[C@@H](n3c(NCc4ccc(Cl)c(Cl)c4)nc4c(N)ncnc43)[C@H](O)[C@@H]2O)cc1` [VER155008] was run?
A: increased HDR levels

Q: `C=CC(=O)Nc1ccc(C(=O)Nc2n[nH]c3c2CN(C(=O)N[C@H](CN(C)C)c2ccccc2)C3(C)C)cc1` [YKL-5-124] was tested. Which “HDR levels (% of BFP+ cells over DMSO)” value did it give?
A: increased HDR levels

Same assay, conditions: 10, 5, 1, 0.5, 0.1 and 0.01 μM; DNA-PK KO cells; 24 hours after drug treatment

Q: For `O=C(/C=C\n1cnc(-c2cc(C(F)(F)F)cc(C(F)(F)F)c2)n1)N1CC(F)(F)C1` [KPT-276], which “BFP+ increase over DMSO (dose dependent effect on HDR)” value is on record?
A: promote HDR at low concentration

Q: With `COc1ccc(CCNCc2ccc(OCc3ccc(Cl)nc3)c(OC)c2)cc1OC.Cl` [SBE 13 HCl] as the compound, how does the “BFP+ increase over DMSO (dose dependent effect on HDR)” value read?
A: dose-dependent increase in HDR

Test system: RFC5, TUBA1B, NEDD8, LIG4, POLQ and RAD51 knock-out lines
Test: HDR levels by cell sorting in gene knock out cell lines treated with DNA-PK inhibitor
Format: cell-based, human
Details: 2 μM DNA-PK inhibitor in RFC5, TUBA1B
Procedure: Knock out cell lines of the indicated genes were treated with 2 μM of DNA-PK inhibitor. HDR levels were determined by cell sorting.
The inventors identified regulators of homologous directed repair (HDR) that synergize with inhibition of non-homologous end-joining (NHEJ) and further increase HDR levels in human cells. The inventors targeted all of the 20,000 genes in the human genome using a pair of CRISPR-based screens to identify genes that, upon loss (knock-out) or gain (overexpression), increase precise gene repair. Using a CRISPR inhibition screen, a ranked list of the effect of loss of every human gene on precise gene repair. In a CRISPR activation screen, we produced a ranked list of the effect of gain of every human gene on precise gene repair. Combinatorial effects of multiple gene/drug perturbations on boosting precise gene repair were also examined. […]
as §1, with “The CRISPR screens were performed on a K562 human cell line stably expressing a green fluorescent protein (GFP). GFP was targeted with Cas9, guide RNA targeting GFP, and a single stranded DNA (ssDNA) encoding BFP.” left out
HDR levels were determined by cell sorting.

Q: How did the HDR levels turn out when `O=c1cc(N2CCOCC2)oc2c(-c3cccc4c3sc3ccccc34)cccc12` [NU7441] was run?
A: significant increase in the HDR levels

Test system: HEK293 DNA-PK KO cells
Test: MTT cytotoxicity assay after 24 hours drug treatment
Format: cell-based, human
Details: 10, 5, 1, 0.5, 0.1 and 0.01 μM
Procedure: FIG. 8 is a heat plot showing cytotoxicity after drug treatment. HEK293 DNA-PK KO cells were treated with the noted compounds at 10 μM, 5 μM, 1 μM, 0.5 μM, 0.1 μM, and 0.01 μM in triplicate. After 24 hours an MTT assay was performed.
The same compounds were also tested for cytotoxicity at 10 μM, 5 μM, 1 μM, 0.5 μM, 0.1 μM, and 0.01 μM.

Q: For `O=C(/C=C\n1cnc(-c2cc(C(F)(F)F)cc(C(F)(F)F)c2)n1)N1CC(F)(F)C1` [KPT-276], which “cytotoxicity over DMSO (MTT, viable cells)” value is on record?
A: toxic at high concentration

Q: `COc1ccc(CCNCc2ccc(OCc3ccc(Cl)nc3)c(OC)c2)cc1OC.Cl` [SBE 13 HCl] was tested. Which “cytotoxicity over DMSO (MTT, viable cells)” value did it give?
A: low toxicity
